# Assay results as given in patent publication US8415334B2, “Method of combating infection” (Morvus Technology Ltd., priority 2005, dated 2013).
# “And” between values parts separate entries of the source, which are not always exact repeats. Identical values can stand only once. Like-named read-outs stand apart in the source and are kept apart here.
# Columns and labels:
# T. colubriformis = test: Integrated in vitro screening, T. colubriformis; assay type: cell-based; settings: for IC50: Trichostrongylus colubriformis, read-out: T. colubriformis, IC50
# P. falciparum (Ghana) = test: Integrated in vitro screening, P. falciparum (Ghana); assay type: cell-based; settings: Plasmodium falciparum; for IC50: read-out: P. falciparum (Ghana), IC50
# T. cruzi (tulahuen CL2) = test: microbe, parasite or virus in culture; settings: Trypanosoma cruzi, L6, read-out: T. cruzi (tulahuen CL2) IC50
# Protocol: The Trypanosoma cruzi (MHOM/CL/00/Tulahuen) transfected with β-galactosidase (Lac Z) gene, was used (Buckner et al (1996) Antimicrobial Agents and Chemotherapy 40(11), 2592-2597. The strain was maintained on an L-6 (rat skeletal myoblast cell line obtained from European Collection of Animal Cell Cultures (ECACC, Salisbury, UK)) cell-layer in RPMI 1640 w/o phenol red medium supplemented with 10% heat inactivated fetal calf serum. All cultures and assays were conducted at 37° C. under an atmosphere of 5% CO2 in air.
# For the assays, the compound was further diluted to the appropriate concentration using complete medium.
# Assays were performed in sterile 96-well microliter plates, each well containing 100 μl medium with 2×10^3 L-6 cells. After 24 hours 50 μl of a trypanosome suspension containing 5×10^3 trypomastigote bloodstream forms from culture was added to the wells. 48 hours later the medium was removed from the wells and replaced by 100 μl fresh medium with or without a serial drug dilution. […] Nifurtimox was used as the reference drug.
# The compounds were tested in triplicate at 4 concentrations (30-10-3-1 μg/ml). Nifurtimox was included as the reference drug.
# The same protocol was used and the IC50s determined using an extended dose range adjusted as appropriate.
# L. donovani HU3 = test: In vivo activity against L. donovani HU3 in mice (liver parasite load, LDU); parameters: species or system Leishmania donovani; settings: for ED50: Leishmania donovani
# Protocol: (§1) The infection and treatment of the animals was performed as described by Croft and Yardley and references there in (Croft & Yardley (1999) Animal models of visceral leishmaniasis. In Handbook of Animal Models of Infection, Zak, O. (ed) pp 783-787, Academic Press, London). […] The liver was removed from freshly sacrificed animals and weighed. Smears were then prepared from the livers on microscope slides and fixed with methanol and stained with Giemsa stain. The number of parasites per 500 liver cells was determined microscopically for each experimental animal. This figure is multiplied by total liver weight (mg) and this figure (the Leishman-Donovan unit (LDU)) is used as the basis for calculating the difference in parasite load between treated and untreated animals (Croft & Yardley, 1999 supra).
# (§2) Stibogluconate at its MTD (15 mg/kg×5 SC) was used as the control compound for these experiments.
# T. b. brucei = test: Integrated in vitro screening, T. b. brucei; assay type: cell-based; settings: Trypanosoma brucei, read-out: T. b. brucei, IC50
# T cruzi [1] = test: In vivo activity against T. cruzi in BALB/c mice (blood parasites, survival); parameters: species or system Trypanosoma cruzi; settings: for # of type of field (blood parasites per fields): individual mice
# [2] = Cytotoxicity assays against a range of human cell lines; assay type: cell-based; settings: range of human cell lines (not named)
# [3] = mouse, in vivo
# Protocol: as §1, §2
# T cruzi [4] = test: In vivo activity against T. cruzi in BALB/c mice (blood parasites, survival); parameters: species or system Trypanosoma cruzi; settings: for # of type of field (blood parasites per fields): 0.3 mg/kg i.p. x5, individual mice
# Protocol: At a dose of 0.3 mg/kg (IP×5, daily) all the mice survived for the 50 days before the experiment was terminated.
# L. infantum = test: In vitro screening, Leishmania in mouse peritoneal macrophages; assay type: cell-based; settings: Peritoneal macrophage
# Protocol: One strain of Leishmania spp. (Leishmania donovani MHOM/ET/67/L82, also known as LV9,HU3) was used. The strain is maintained in the Syrian Hamster (Mesocricetus auratus). Amastigotes were collected from the spleen of an infected hamster and spleen parasite burden was assessed using the Stauber technique.
# Primary peritoneal mouse (CD1) macrophages were collected 1 or 2 days after a macrophage production stimulation with an i.p. injection of 2 ml 2% soluble starch. All cultures and assays were conducted at 37° C. under an atmosphere of 5% CO2.
# The stock was pre-diluted to 60 μg/ml in RPMI 1640+10% heat inactivated fetal calf serum. Assays were performed in sterile 16-well tissue culture slides, each well containing 50 μl of the compound dilutions together with 100 μl of macrophage/parasite inoculum (4×10^5 macrophages/ml and 4×10^6 parasites/ml). The inoculum was prepared in RPMI-1640 medium, supplemented with 10% heat inactivated fetal calf serum. […] After 5 days of incubation, parasite growth was microscopically assessed after staining the cells with a 10% Giemsa solution. The level of infection/well was evaluated by counting the number of infected macrophages per 100 macrophages. The results expressed as % reduction in parasite burden compared to control wells, were transferred into a graphic programme (EXCEL), sigmoidal inhibitions curves determined and IC50 values calculated. […]
structure (smiles),measurement,setting,value
CCCSc1ccc2nc(NC(=O)OC)[nH]c2c1 [Albendazole],IC50,T. colubriformis,0.002 µM
CCN(CC)CCCC(C)Nc1ccnc2cc(Cl)ccc12 (centres unmarked) [Chloroquine],IC50,P. falciparum (Ghana),0.018 µM
CC1CS(=O)(=O)CCN1/N=C/c1ccc([N+](=O)[O-])o1 (centres unmarked) [Nifurtimox],IC50,T. cruzi (tulahuen CL2),0.45 µM
"O.O.O.O.O.O.O.O.O.O=C([O-])[C@@H]1[O][Sb]2([O-])([O][Sb]34([OH])[O][C@H]([C@H](O)CO)[C@H]([O]3)[C@H](C(=O)[O-])[O]4)[O][C@H]([C@H](O)CO)[C@@H]1[O]2.[Na+].[Na+].[Na+] [Stibogluconate, sodium stibogluconate]",effect on parasite counts,"L. donovani HU3; SCID mouse model, MTD 15 mg/kg×5 SC",little effect
Cc1ccc(C(=O)Nc2ccc(S(=O)(=O)O)c3cc(S(=O)(=O)O)cc(S(=O)(=O)O)c23)cc1NC(=O)c1cccc(NC(=O)Nc2cccc(C(=O)Nc3cc(C(=O)Nc4ccc(S(=O)(=O)O)c5cc(S(=O)(=O)O)cc(S(=O)(=O)O)c45)ccc3C)c2)c1 [Suramin],IC50,T. b. brucei,0.045 µM
"NC(=O)c1cc(N2CC2)c([N+](=O)[O-])cc1[N+](=O)[O-] [Tretazicar, 5-(aziridin-1-yl)-2,4-dinitrobenzamide]",activity against tested strains,"T. colubriformis; T. colubriformis, in words",No activity
same,IC50,T. colubriformis; in vitro,> 32 µM
same,activity against tested strains,P. falciparum (Ghana); in words,No activity
same,IC50,P. falciparum (Ghana); in vitro,> 32 µM
same,IC50,T. cruzi (tulahuen CL2),0.003 µM
same,# of type of field (blood parasites per fields),"T cruzi [1]; 1 mg/kg i.p. x5, day 6 post infection",0/20 (3×) and 1/20 (2×)
same,# of type of field (blood parasites per fields),"T cruzi [1]; 1 mg/kg i.p. x5, day 13 post infection",0/10 (2×) and 3/10
same,parasites in the blood,"T cruzi [1]; 3.0 mg/kg (IP×5, daily)",cleared all the parasites from the blood
same,# of type of field (blood parasites per fields),"T cruzi [1]; 3 mg/kg i.p. x5, day 6 post infection",5/20 and 12/20 and 4/20 and 1/20 (2×)
same,# of type of field (blood parasites per fields),"T cruzi [1]; 3 mg/kg i.p. x5, day 13 post infection",0/10
same,# of type of field (blood parasites per fields),"T cruzi [1]; 10 mg/kg i.p. x5, day 6 post infection",0/20 (3×) and 1/20 and 2/20
same,# of type of field (blood parasites per fields),"T cruzi [1]; 10 mg/kg i.p. x5, day 13 post infection",0/10
same,IC50,[2],> 50 µM
same,"drug related toxicity, as measured by body weight loss",[3],No drug related toxicity
same,dose at which significant toxicity was observed,[3]; 5 days,10 mg/kg×5
same,ED90,"L. donovani HU3; BALB/c mice, IP × 5 Daily",1.41 mg/kg
same,ED90,"L. donovani HU3; BALB/c mice, IV × 3 Daily",1.15 mg/kg
same,ED50,"L. donovani HU3; ip, BALB/c mice, IP × 5 Daily",0.23 mg/kg
same,ED50,"L. donovani HU3; iv, BALB/c mice, IV × 3 Daily",0.19 mg/kg
same,ED50,"L. donovani HU3; iv, SCID mice, IV × 5 Daily",0.18 mg/kg
same,ED90,"L. donovani HU3; SCID mice, IV × 5 Daily",0.35 mg/kg
same,survival of infected mice,"T cruzi [4]; 0.3 mg/kg (IP×5, daily), BALB/c mice, experiment terminated at 50 days",≥ 50 days
same,parasites in the blood,"T cruzi [4]; 0.3 mg/kg (IP×5, daily), at 13 days",parasites could still be detected in the blood
same,# of type of field (blood parasites per fields),T cruzi [4]; day 6 post infection,2/20 and 0/20 (4×)
same,# of type of field (blood parasites per fields),T cruzi [4]; day 13 post infection,16/5 and 2/5 (2×) and 7/5 and 6/5
same,IC50,T. b. brucei; in vitro,5 µM
same,IC50,L. infantum,0.08 µM
O=C(Cn1ccnc1[N+](=O)[O-])NCc1ccccc1 [benznidazole],"parasites in the blood, compared with tretazicar 3.0 mg/kg",T cruzi [1]; 45 mg/kg (p.o.×5 daily),equivalent effect
same,# of type of field (blood parasites per fields),"T cruzi [1]; 45 mg/kg p.o. x5, day 6 post infection",0/20 and 3/20 (2×) and 4/20 and 1/20
same,# of type of field (blood parasites per fields),"T cruzi [1]; 45 mg/kg p.o. x5, day 13 post infection",0/10
